Measurements from US9682953B2, “Amide compounds, compositions and applications thereof” (Advinus Therapeutics Limited, priority 2011, dated 2017).
Like-named read-outs stand apart in the source and are kept apart here.

Columns and labels:
[1] = target: human Fatty Acid Amide Hydrolase (FAAH) (Homo sapiens (Human), UniProt O00519); assay: biochemical
[2] = target: rat Fatty Acid Amide Hydrolase (FAAH) (Rattus norvegicus (Rat), UniProt P97612); assay: FAAH in vitro fluorescence assay (AAMCA hydrolysis), rat enzyme; format: biochemical; conditions: for inhibition at 0.1 µM: read-out: rFAAH % inhibition at 100 nM, 100 nM (tier I)
Sequence of rat Fatty Acid Amide Hydrolase (FAAH) (P97612 30-579): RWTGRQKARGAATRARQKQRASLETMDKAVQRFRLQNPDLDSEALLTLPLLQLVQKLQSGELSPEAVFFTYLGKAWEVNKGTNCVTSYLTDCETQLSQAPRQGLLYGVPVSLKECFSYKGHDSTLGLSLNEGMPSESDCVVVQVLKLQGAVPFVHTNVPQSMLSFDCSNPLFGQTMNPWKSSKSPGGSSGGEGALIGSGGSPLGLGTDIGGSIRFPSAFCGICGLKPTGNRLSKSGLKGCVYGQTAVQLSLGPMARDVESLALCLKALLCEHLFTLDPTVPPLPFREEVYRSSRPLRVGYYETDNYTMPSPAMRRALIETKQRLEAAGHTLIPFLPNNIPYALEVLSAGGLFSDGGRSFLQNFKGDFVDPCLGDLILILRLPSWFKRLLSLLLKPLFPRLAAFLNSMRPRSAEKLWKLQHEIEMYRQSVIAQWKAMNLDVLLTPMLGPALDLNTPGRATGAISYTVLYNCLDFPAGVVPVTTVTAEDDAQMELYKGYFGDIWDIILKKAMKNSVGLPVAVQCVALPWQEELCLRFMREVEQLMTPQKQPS
Summary of the method: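 Rat FAAH, E. coli-expressed with groEL-groES chaperone, used as enriched membrane extract with 10 μM AAMCA in 50 mM HEPES, 1 mM EDTA, 0.1% BSA, pH 7.4 (1% DMSO final).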

[3] = human FAAH, read-out: hFAAH IC50

Sequence of human Fatty Acid Amide Hydrolase (FAAH) (O00519 30-579): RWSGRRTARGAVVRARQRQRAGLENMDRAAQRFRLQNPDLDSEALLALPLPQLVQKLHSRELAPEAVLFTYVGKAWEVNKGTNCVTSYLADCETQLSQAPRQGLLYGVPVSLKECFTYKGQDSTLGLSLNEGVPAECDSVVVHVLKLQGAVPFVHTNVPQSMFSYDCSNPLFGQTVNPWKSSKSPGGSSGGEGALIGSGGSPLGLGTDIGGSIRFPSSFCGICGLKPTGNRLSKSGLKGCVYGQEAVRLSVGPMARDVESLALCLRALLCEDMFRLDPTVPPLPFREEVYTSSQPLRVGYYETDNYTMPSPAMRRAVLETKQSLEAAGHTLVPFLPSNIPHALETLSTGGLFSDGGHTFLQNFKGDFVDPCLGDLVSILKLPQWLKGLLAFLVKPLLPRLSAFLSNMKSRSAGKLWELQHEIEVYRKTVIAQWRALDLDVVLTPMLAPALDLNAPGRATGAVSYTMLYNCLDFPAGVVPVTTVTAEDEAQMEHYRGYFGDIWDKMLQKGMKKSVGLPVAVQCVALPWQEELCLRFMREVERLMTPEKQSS

SMILES	IC50 [1, 3]	IC50 ([2]; rat FAAH, read-out: rFAAH IC50)	inhibition at 0.1 µM ([2]; rat FAAH)	also measured
CCN(C)c1ccc(C(=O)NC2CCC(=Cc3cccc(Oc4ccc(C(F)(F)F)cn4)c3)CC2)cn1 (stereo not shown) [Example 5.A-7, 6-[Ethyl(methyl)amino]-N-[4-[[3-[[5-(trifluoromethyl)-2-pyridyl]oxy]phenyl]methylene]cyclohexyl]pyridine-3-carboxamide]	128 nM	15 nM	–	–
CC(CO)Nc1ccc(C(=O)NC2CCC(=Cc3cccc(Oc4ccc(C(F)(F)F)cn4)c3)CC2)cn1 (stereo not shown) [Example 5.A-8, 6-[(2-Hydroxy-1-methyl-ethyl)amino]-N-[4-[[3-[[5-(trifluoromethyl)-2-pyridyl]oxy]phenyl]methylene]cyclohexyl]pyridine-3-carboxamide]	16 nM	32 nM	–	–
O=C(NC1CCC(=Cc2cccc(Oc3ccc(C(F)(F)F)cn3)c2)CC1)c1ccc(NC2CC2)nc1 (stereo not shown) [Example 5.A-10, 6-(Cyclopropylamino)-N-[4-[[3-[[5-(trifluoromethyl)-2-pyridyl]oxy]phenyl]methylene]cyclohexyl]pyridine-3-carboxamide]	25 nM	74 nM	–	–
CCOc1ccc(C(=O)NC2CCC(=Cc3cccc(Oc4ccc(C(F)(F)F)cn4)c3)CC2)cn1 (stereo not shown) [Example 6.1, 6-Ethoxy-N-[4-[[3-[[5-(trifluoromethyl)-2-pyridyl]oxy]phenyl]-methylene]cyclohexyl]pyridine-3-carboxamide]	10 nM	8 nM	–	–
O=C(O)Cn1cc(-c2ccc(C(=O)NC3CCC(=Cc4cccc(Oc5ccc(C(F)(F)F)cn5)c4)CC3)cn2)cn1 (stereo not shown) [Example 8.A-1, 2-[4-[5-[[4-[[3-[[5-(Trifluoromethyl)-2-pyridyl]oxy]phenyl]methylene]cyclohexyl]carbamoyl]-2-pyridyl]pyrazol-1-yl]acetic acid]	–	–	15%	inhibition at 0.1 µM ([1]; read-out: hFAAH % inhibition at 100 nM, human FAAH, 100 nM (tier I)): 72%
O=C(O)c1cnn(-c2ccc(C(=O)NC3CCC(=Cc4cccc(Oc5ccc(C(F)(F)F)cn5)c4)CC3)cn2)c1 (stereo not shown) [Example 8.A-4, 1-[5-[[4-[[3-[[5-(Trifluoromethyl)-2-pyridyl]oxy]phenyl]methylene]cyclohexyl]carbamoyl]-2-pyridyl]pyrazole-4-carboxylic acid]	–	–	15%	IC50 ([1]; hFAAH IC50): 27 nM
Nc1cc(C(=O)NC2CCC(=Cc3cccc(Oc4ccc(C(F)(F)F)cn4)c3)CC2)cnc1Cl (stereo not shown) [Example 10.1, 5-Amino-6-chloro-N-[4-[[3-[[5-(trifluoromethyl)-2-pyridyl]oxy]-phenyl]methylene]cyclohexyl]pyridine-3-carboxamide]	–	–	–	IC50 ([1]; hFAAH IC50): 1 nM; IC50 [2]: 6 nM
O=C(NC1CCC(=Cc2cccc(Oc3ccc(C(F)(F)F)cn3)c2)CC1)c1ccc(-c2nnn[nH]2)nc1 (stereo not shown) [Example 11.1, 6-(1H-Tetrazol-5-yl)-N-[4-[[3-[[5-(trifluoromethyl)-2-pyridyl]oxy]-phenyl]methylene]cyclohexyl]pyridine-3-carboxamide]	–	–	50%	IC50 ([1]; read-out: hFAAH IC50): 12 nM
